The source of these data is US20210369681A1, “Identification of PPM1D mutations as a novel biomarker for NAMPTi sensitivity” (YALE UNIVERSITY, priority 2018, published 2021).

For data set [1], the system named is SU-DIPG-IV, XIII, and XVII (WT DIPG lines). In words: DIPG spheroid viability (CytoTox-Glo), SU-DIPG lines. It counts as cell-based, human.
The test system of data set [2] is PPM1Dtrnc. astrocyte xenografts. Briefly: PPM1Dtrnc. astrocyte cell line xenografts. It counts as in vivo, NOD scid gamma (NSG) mice. Conditions: 20 mg/kg BID i.p. As to the method: (§1) Astrocyte xenograft studies were performed in NOD scid gamma (NSG, NOD.Cg-Prkdc^scidIl2rg^tm1Wj1/SzJ female mice 3-4 weeks old) mice. For cell line xenografts, 5×10^6 WT or PPM1D^trnc. astrocytes, stably expressing firefly luciferase (lentivirus-plasmids from Cellomics Technology; PLV-10003), were combined with Matrigel (Corning, 47743-722) in a total volume of 0.2 mL. Cell-Matrigel suspension was injected subcutaneously into both the right and left flanks of shaved NSG mice. Mice were randomly sorted into treatment groups, and tumor burden and growth were measured on a weekly basis, via BLI intensity, as described below. FK866 was solubilized in DMSO at a concentration of 80 mg/ml. Mice were then administered the drug intraperitoneally twice a day for 4 days, repeated weekly for 3 weeks at 20 mg/kg in 10% cyclodextrin. Treatment began after one month of growth. Tumors were harvested after completion of treatment, and mass for each tumor was measured. Serially transplanted xenografts were created via continuous transplantation of PPM1D^trnc. cell line xenografts in NSG mice. […] Mice were sorted randomly into treatment groups, and tumor volume was measured using standard caliper-based techniques. Tumor volume was calculated as length×width^2×0.52. […] Mice were sorted randomly into treatment groups, and tumor burden was assessed through caliper measurement and volume calculations. […]

Data set [3] has as its system NAD and NADP levels in WT and PPM1Dtrnc. astrocytes. Briefly: NAD / NADP quantification in astrocytes. The data set is classed as cell-based, human. The note with it: 10 nM FK866, 24 hrs. As for the experimental part:
The NAD metabolome was quantitatively analyzed using LC-MS/MS, using two separations on Hypercarb and 13C metabolite standards. Subsequent NAD level analyses were performed using a NAD/NADH Quantification kit (Sigma), as per the manufacturer's specifications. Me/hME-DIP, Bisulfite Conversion, and Global 5-hmC Detection Genomic DNA was purified using the Wizard Genomic DNA purification kit (Promega), and subsequently immunoprecipitated or bisulfite-converted. […] Immunoprecipitated DNA was extracted with phenol/chloroform and analyzed using quantitative PCR (qPCR), as described below. Bisulfite conversion was performed via EpiMark Bisulfite Conversion kit (NEB). Modified DNA was then amplified using EpiMark Hot Start Taq DNA polymerase (NEB), with primers listed in Table 1, and purified with a PCR purification kit (Qiagen). Methylation was then assessed through Sanger-sequencing of the NAPRT promoter. Global 5-hydroxymethylcytosine levels were assessed via the Global 5-hmC quantification kit (Active Motif), according to manufacturer's protocols. Quantitative PCR (qPCR) mRNA transcripts were purified from cells using a RNAeasy kit (Qiagen) and subsequently reverse transcribed using a High Capacity cDNA reverse transcription kit (Applied Biosystems). PPM1D and NAPRT gene expression levels were assessed through qPCR with TaqMan fluorescent probes (all from Applied Biosystems): PPM1D (4331182), NAPRT (4351372), and Actin (4333762F), according to manufacturer's protocol. Expression level fold change was calculated via ΔΔCt comparison, using Actin as a reference gene. The NAPRT promoter region was quantitated via qPCR using Fast Start Universal SYBR Green Master with ROX (Roche), and primers listed in Table 1. All qPCR reactions were run on a StepOnePlus Real Time PCR system (Applied Biosystems).

For another data set, the system named is U2OS. Briefly: U2OS cell viability. It counts as cell-based, human. The note with it: 96 hr treatment. As to the method:
(§2) hTert/E6/E7 immortalized human astrocytes were acquired from the lab of Dr. Timothy Chan, and have been previously characterized. Unless noted otherwise, astrocytes were grown in DMEM, high glucose (ThermoFisher Scientific/Gibco) plus 10% FBS (Gibco) as adherent monolayers. U2OS cells were purchased from ATCC, and were grown in DMEM, high glucose plus 10% FBS. MCF7 cells were grown in RPMI1640 (ThermoFisher Scientific/Gibco) with the addition of 10% FBS.

In a further data set the test system is SU-DIPG-XXXV. In words: DIPG spheroid viability (CytoTox-Glo), PPM1D mutant line. The data set is classed as cell-based, human. The note with it: 120 hr treatment; spheroids.
Data set [4] has as its system serially-transplanted PPM1D mutant astrocyte xenografts. In words: Serially-transplanted PPM1D mutant astrocyte xenografts. The data set is classed as in vivo, NSG mice. The note with it: 20 mg/kg BID. As to the method: as §1
Data set [5] has as its system parental and PPM1Dtrnc. immortalized human astrocytes. It counts as cell-based. As for the experimental part: In vitro cellular viability assessments of immortalized human astrocytes, MCF7, and U2OS cell lines were made using a previously described, high-content, microscopy platform developed by our group. In brief, cells were plated in a 96-well plate at a density of 2000 cells/well, and incubated overnight. Drug treatment or vehicle (0.5% DMSO) control was administered, and cells were incubated for 72-96 hours as indicated. Plates were then washed with PBS and fixed with ice-cold 70% ethanol for 2 hours at 4° C. […] Cells were imaged using a Cytation3 imager (BioTek), and images were stitched and analyzed as described above. Viability assessments were made comparing drug treated to vehicle treated conditions. SU-DIPG and HSJD-DIPG-007 spheroid viability was assessed using CytoTox-Glo (Promega), according to the manufacturer's protocols. Spheroids were treated with FK866 for 120 hours before analysis using this method. IC50 calculations were made using GraphPad Prism, by fitting data to an [inhibitor] vs response−variable slope four parameter nonlinear regression (as depicted in the representative figures). siRNA Transfection and Viability Analysis Individual NAPRT targeting siRNAs were ordered from Dharmacon Inc. (Horizon Discovery), with target sequences listed in Table 1. The panel of siRNAs used for synthetic lethal viability screening was hand-selected and ordered from Dharmacon Inc. and were provided in ON-TARGET plus mixtures, each containing up to four unique siRNAs per gene. 2×10^5 astrocytes were reverse-transfected with different siRNAs (200 nM final concentration), using Lipofectamine RNAiMAX (Invitrogen), according to manufacturer's protocols. For individual siRNAs, cells were incubated for 72 hours, pelleted, and lyzed for immunoblotting. For the siRNA screen, cells were incubated for 24 hours and split to different condition plates, where they were incubated for an additional 24 hours. Cells were then treated with the described doses of FK866, and viability was assessed after 72 hours of drug treatment, using the image-based pipeline described above. Viability measurements were made for each siRNA, and normalized to FK866-untreated conditions.
Given the role of PPM1D in DDR pathways, we performed a small molecule synthetic lethal screen with a panel of inhibitors against key DNA repair and metabolic proteins, using methodology described previously by our group.

In the next data set the test system is MCF7. In words: MCF7 cell viability. The data set is classed as cell-based, human. Conditions: 96 hr treatment. As to the method: as §2
For data set [6], the system named is U2OS cell line xenografts. Briefly: U2OS cell line xenografts. The data set is classed as in vivo, athymic nude mice.
In data set [7] the test system is NAPRT expression in PPM1Dtrnc. cells. In words: NAPRT immunoblot after DNA demethylating agents. The data set is classed as cell-based, human. Conditions: varying doses, 72 hrs. As to the method:
PPM1D^trnc. astrocytes were treated with 50 µg/mL cycloheximide or 1 μM MG132 (both Sigma) for the indicated amount of time. Cells were then washed, pelleted, and lyzed for subsequent immunoblotting approaches, as described above. Quantification of immunoblot intensity was calculated using ImageJ software, and consisted of multiple (n=3) blots. Irradiation of cells was performed using an X-RAD KV irradiator (Precision X-ray), and treatment consisted of an unfractionated, 10 Gy dose. PPM1D inhibitor treatment with GSK2830371 (Selleckchem), consisted of 50 nM treatment, 24 hours prior to IR. FK866 (Selleckchem), GPP78 (Tocris Bioscience), STF118804 (Tocris Bioscience), STF31 (Tocris Bioscience), 5-azacytidine (Selleckchem), and Decitabine (Selleckchem) were dissolved in DMSO and used for treatment as indicated.
A general note: A western blot detects proteins with antibodies after separation by electrophoresis.

Molecules are shown by their SMILES.

As for `O=C(/C=C/c1cccnc1)NCCCCC1CCN(C(=O)c2ccccc2)CC1` [FK866], in data set [1] (all SU-DIPG spheroid cultures tested, growth media devoid of nicotinic acid (NA)), the “Sensitivity to FK866 in media devoid of nicotinic acid” value is recorded as “strong sensitivity”. Moreover, in [1] (three WT DIPG lines, 120 hr, NA-containing media), the “Response to FK866 treatment” value is “resistant”. The “Lower final tumor mass, fold change” value in data set [2] (3 cycles, versus vehicle alone) amounted to 3.1. The “Reduction in tumor burden (BLI), fold change” value in data set [2] (4 days weekly for 3 weeks, after three weeks, vs vehicle) came to 4.93. The “Decline of NAD and NADP compared with WT astrocytes” value in data set [3] (PPM1Dtrnc. cells) was “significantly greater”. Also, the “Cellular pools of NAD and NADP” value in [3] (WT astrocytes) is given as “dropped markedly”. In addition, the “Sensitivity to FK866 treatment” value in the data set on U2OS and in the data set on MCF7 was “strong sensitivity” in each case. In the data set on SU-DIPG-XXXV, the Cytotoxic doses result is given as “low, single-digit nanomolar range”. Also, in data set [4] (3 cycles of four days on, three days off, calipers and BLI, vs vehicle), the “Reduced overall tumor size, fold change” value is recorded as 17.1. For the same molecule, the “Tumor growth delay (Kaplan-Meier)” value in [4] (3 cycles, compared to a vehicle control) is on record as “significantly delayed”. The “IC50 ratio (Parental/PPM1Dtrnc.)” value in data set [5] is 9746.59. The “Tumor volume, fold change” value in data set [6] (20 mg/kg BID for 3 four day weekly cycles, vs vehicle) amounted to 5.86. For the same molecule, in [6] (all mice on study, throughout the dosing schedule (FIG. 13B)), the “Body mass difference between the treatment groups” value was “no significant differences”.

In the case of `Nc1ncn([C@@H]2O[C@H](CO)[C@@H](O)[C@H]2O)c(=O)n1` [azacytidine], the “Reversal of NAPRT gene silencing” value in [7] is “failed to reverse”.
